# Measurements reported in the supplement of paper PMC10307832.
# Compound: CC1=NN=C(O1)C2=NN=C(C=C2)N3CCC(CC3)OC4=C(C=CC(=C4)F)Cl + Nc1ncn([C@H]2C[C@H](O)[C@@H](CO)O2)c(=O)n1 [Decitabine] (partner 2 µM)
# Assay: relative viability (nuclei count vs DMSO), 5 days (fraction); higher = more cells survive
# Details: first compound 0.253 µM
# How it was run: (§1)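 Lung cancer cell lines in 1536-well plates got either a single drug or a fixed anchor-drug dose together with five library-drug doses (not always all listed) in √10 steps, by pin tool, on the day after seeding. Nuclei were counted after 5 days, and relative viability is the treated-to-vehicle ratio of nuclei counts. Values are medians of duplicate plates.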
row,Cell Line,relative viability
1,BEN,0.75
2,HARA,0.414
3,HCC-78,0.491
4,NCI-H647,0.32
5,LCLC-97TM1,0.205
6,NCI-H2126,0.542
7,A-427,0.55
8,NCI-H650,0.334
9,RERF-LC-KJ,0.574
10,NCI-H1915,0.255
11,NCI-H441,0.221
12,NCI-H1975,0.258
13,NCI-H1395,0.689
14,201T,0.459
15,HCC-827,0.342
16,NCI-H322M,0.812
17,NCI-H1437,0.376

row,Cell Line,relative viability
1,PC-14,0.19
2,NCI-H1734,0.519
3,EPLC-272H,0.361
4,NCI-H3122,0.376
5,NCI-H1651,0.486
6,NCI-H1993,0.554
7,HCC-15,0.497
8,NCI-H1793,0.468
9,EKVX,0.292
10,LC-2-ad,0.335
11,NCI-H1666,0.561
12,NCI-H1944,0.306
13,NCI-H2085,0.479
14,ABC-1,0.49
15,NCI-H358,0.19
16,PC-3 [JPC-3],0.774

# Same assay, conditions: first compound 0.8 µM
row,Cell Line,relative viability
1,BEN,0.775
2,HARA,0.384
3,HCC-78,0.43
4,NCI-H647,0.289
5,NCI-H2126,0.549
6,A-427,0.576
7,NCI-H650,0.331
8,RERF-LC-KJ,0.561
9,NCI-H1915,0.223
10,NCI-H441,0.227
11,NCI-H1975,0.28
12,NCI-H1395,0.762
13,201T,0.647
14,HCC-827,0.298
15,NCI-H322M,0.709
16,NCI-H1437,0.383
17,PC-14,0.226

row,Cell Line,relative viability
1,NCI-H1734,0.482
2,EPLC-272H,0.366
3,NCI-H3122,0.31
4,NCI-H1651,0.46
5,NCI-H1993,0.551
6,HCC-15,0.5
7,NCI-H1793,0.482
8,EKVX,0.261
9,LC-2-ad,0.314
10,NCI-H1666,0.674
11,NCI-H1944,0.288
12,NCI-H2085,0.477
13,ABC-1,0.539
14,NCI-H358,0.212
15,PC-3 [JPC-3],0.747
16,LOU-NH91,0.773

# Same assay, conditions: first compound 2.53 µM
row,Cell Line,relative viability
1,BEN,0.713
2,HARA,0.357
3,HCC-78,0.397
4,NCI-H647,0.275
5,LCLC-97TM1,0.186
6,NCI-H2126,0.488
7,A-427,0.53
8,NCI-H650,0.336
9,RERF-LC-KJ,0.52
10,NCI-H1915,0.242
11,NCI-H441,0.259
12,NCI-H1975,0.358
13,NCI-H1395,0.757
14,201T,0.445
15,HCC-827,0.183
16,NCI-H322M,0.682
17,NCI-H1437,0.399

row,Cell Line,relative viability
1,PC-14,0.177
2,NCI-H1734,0.463
3,EPLC-272H,0.4
4,NCI-H3122,0.412
5,NCI-H1651,0.451
6,NCI-H1993,0.484
7,HCC-15,0.493
8,NCI-H1793,0.343
9,EKVX,0.309
10,LC-2-ad,0.381
11,NCI-H1666,0.69
12,NCI-H1944,0.321
13,NCI-H2085,0.446
14,ABC-1,0.406
15,NCI-H358,0.197
16,PC-3 [JPC-3],0.801
17,LOU-NH91,0.773

# Same assay, conditions: first compound 8 µM
row,Cell Line,relative viability
1,BEN,0.668
2,HARA,0.319
3,HCC-78,0.509
4,NCI-H647,0.223
5,LCLC-97TM1,0.18
6,NCI-H2126,0.52
7,A-427,0.569
8,NCI-H650,0.285
9,RERF-LC-KJ,0.521
10,NCI-H1915,0.217
11,NCI-H441,0.254
12,NCI-H1975,0.278
13,NCI-H1395,0.714
14,201T,0.43
15,HCC-827,0.282
16,NCI-H322M,0.643
17,NCI-H1437,0.368

row,Cell Line,relative viability
1,PC-14,0.23
2,NCI-H1734,0.503
3,EPLC-272H,0.374
4,NCI-H3122,0.281
5,NCI-H1651,0.391
6,NCI-H1993,0.647
7,HCC-15,0.457
8,NCI-H1793,0.452
9,EKVX,0.225
10,LC-2-ad,0.348
11,NCI-H1666,0.534
12,NCI-H1944,0.309
13,NCI-H2085,0.406
14,ABC-1,0.423
15,NCI-H358,0.181
16,PC-3 [JPC-3],0.732
17,LOU-NH91,0.759

# Compound: CC1=NN=C(O1)C2=NN=C(C=C2)N3CCC(CC3)OC4=C(C=CC(=C4)F)Cl + CS(=O)(=O)N1CCN(Cc2cc3nc(-c4cccc5[nH]ncc45)nc(N4CCOCC4)c3s2)CC1 [Pictilisib] (partner 1 µM)
# Assay: as above
# Details: first compound 0.253 µM
# How it was run: as §1
row,Cell Line,relative viability
1,BEN,0.571
2,HARA,0.263
3,HCC-78,0.204
4,NCI-H647,0.398
5,LCLC-97TM1,0.234
6,NCI-H2126,0.433
7,A-427,0.859
8,NCI-H650,0.869
9,RERF-LC-KJ,0.561
10,NCI-H1915,0.763
11,NCI-H441,0.504
12,NCI-H1395,0.565
13,201T,0.537
14,HCC-827,0.544
15,NCI-H322M,0.511
16,NCI-H1437,0.556

row,Cell Line,relative viability
1,PC-14,0.603
2,NCI-H1734,0.451
3,EPLC-272H,0.399
4,NCI-H3122,0.643
5,NCI-H1651,0.506
6,NCI-H1993,0.742
7,HCC-15,0.583
8,NCI-H1793,0.307
9,EKVX,0.323
10,LC-2-ad,0.423
11,NCI-H1666,0.276
12,NCI-H1944,0.31
13,NCI-H2085,0.387
14,ABC-1,0.389
15,NCI-H358,0.355
16,PC-3 [JPC-3],0.602

# Same assay, conditions: first compound 0.8 µM
row,Cell Line,relative viability
1,BEN,0.62
2,HARA,0.282
3,HCC-78,0.234
4,NCI-H647,0.552
5,NCI-H2126,0.478
6,NCI-H650,0.775
7,RERF-LC-KJ,0.529
8,NCI-H1915,0.586
9,NCI-H441,0.423
10,NCI-H1975,0.332
11,NCI-H1395,0.597
12,201T,0.634
13,HCC-827,0.571
14,NCI-H322M,0.486
15,NCI-H1437,0.426
16,PC-14,0.735

row,Cell Line,relative viability
1,NCI-H1734,0.404
2,NCI-H3122,0.593
3,NCI-H1651,0.665
4,NCI-H1993,0.78
5,HCC-15,0.566
6,NCI-H1793,0.312
7,EKVX,0.31
8,LC-2-ad,0.416
9,NCI-H1666,0.414
10,NCI-H1944,0.381
11,NCI-H2085,0.471
12,ABC-1,0.532
13,NCI-H358,0.345
14,PC-3 [JPC-3],0.677
15,LOU-NH91,0.519

# Same assay, conditions: first compound 2.53 µM
row,Cell Line,relative viability
1,BEN,0.68
2,HARA,0.336
3,HCC-78,0.11
4,NCI-H647,0.392
5,LCLC-97TM1,0.213
6,NCI-H2126,0.441
7,A-427,0.675
8,NCI-H650,0.47
9,RERF-LC-KJ,0.482
10,NCI-H1915,0.698
11,NCI-H441,0.389
12,NCI-H1975,0.411
13,NCI-H1395,0.567
14,201T,0.681
15,HCC-827,0.609
16,NCI-H322M,0.482
17,NCI-H1437,0.447

row,Cell Line,relative viability
1,PC-14,0.781
2,NCI-H1734,0.421
3,EPLC-272H,0.41
4,NCI-H3122,0.648
5,NCI-H1651,0.524
6,NCI-H1993,0.821
7,HCC-15,0.6
8,NCI-H1793,0.31
9,EKVX,0.388
10,LC-2-ad,0.4
11,NCI-H1666,0.456
12,NCI-H1944,0.381
13,NCI-H2085,0.452
14,ABC-1,0.547
15,NCI-H358,0.387
16,PC-3 [JPC-3],0.84
17,LOU-NH91,0.55

# Same assay, conditions: first compound 8 µM
row,Cell Line,relative viability
1,BEN,0.584
2,HARA,0.191
3,HCC-78,0.184
4,NCI-H647,0.391
5,LCLC-97TM1,0.239
6,NCI-H2126,0.412
7,A-427,0.54
8,NCI-H650,0.889
9,RERF-LC-KJ,0.454
10,NCI-H1915,0.563
11,NCI-H441,0.389
12,NCI-H1975,0.402
13,NCI-H1395,0.549
14,201T,0.663
15,HCC-827,0.605
16,NCI-H322M,0.451
17,NCI-H1437,0.386

row,Cell Line,relative viability
1,PC-14,0.702
2,NCI-H1734,0.355
3,EPLC-272H,0.309
4,NCI-H3122,0.642
5,NCI-H1651,0.417
6,NCI-H1993,0.789
7,HCC-15,0.546
8,NCI-H1793,0.347
9,EKVX,0.345
10,LC-2-ad,0.386
11,NCI-H1666,0.313
12,NCI-H1944,0.331
13,NCI-H2085,0.39
14,ABC-1,0.464
15,NCI-H358,0.357
16,PC-3 [JPC-3],0.654
17,LOU-NH91,0.499

# Compound: CC(C)C[C@@H](C(=O)N[C@H](C(=O)OC1CCCC1)c1ccccc1)[C@H](O)C(=O)NO [Tosedostat] + O=C(c1cc(Cc2n[nH]c(=O)c3ccccc23)ccc1F)N1CCN(C(=O)C2CC2)CC1 [Olaparib] (partner 8 µM)
# Assay: as above
# Details: first compound 0.02 µM
# How it was run: as §1
row,Cell Line,relative viability
1,BEN,1.11
2,HARA,0.762
3,HCC-78,0.683
4,NCI-H647,0.799
5,LCLC-97TM1,0.335
6,NCI-H2126,0.897
7,A-427,0.763
8,NCI-H650,0.368
9,RERF-LC-KJ,0.903
10,NCI-H1915,0.281
11,NCI-H441,0.711
12,NCI-H1975,0.909
13,NCI-H1395,0.461
14,201T,0.824
15,HCC-827,0.543
16,NCI-H322M,0.746
17,NCI-H1437,0.641
18,PC-14,0.264
